Laboratory results reported in patent US12227500B2, “Substituted pyrrolo[2,3-b]pyridines for suppressing toxic endoplasmic reticulum stress” (THE TRUSTEES OF COLUMBIA UNIVERSITY IN THE CITY OF NEW YORK, priority 2018, dated 2025).

Assays:
Experiment in all cases: Radiolabeled ATP kinase assay, panel of 371 kinases (Table S6)
Assay type in all cases: biochemical
[1] = target: T1, panel of 371 human kinases (Homo sapiens, UniProt O95747); conditions: OSR1/OXSR1; 0.1 μM; 10 μM ATP; read-out: % Enzyme Activity (relative to DMSO controls)
T1 construct: purchased Reaction Biology Corp
T1 sequence (O95747 whole entry): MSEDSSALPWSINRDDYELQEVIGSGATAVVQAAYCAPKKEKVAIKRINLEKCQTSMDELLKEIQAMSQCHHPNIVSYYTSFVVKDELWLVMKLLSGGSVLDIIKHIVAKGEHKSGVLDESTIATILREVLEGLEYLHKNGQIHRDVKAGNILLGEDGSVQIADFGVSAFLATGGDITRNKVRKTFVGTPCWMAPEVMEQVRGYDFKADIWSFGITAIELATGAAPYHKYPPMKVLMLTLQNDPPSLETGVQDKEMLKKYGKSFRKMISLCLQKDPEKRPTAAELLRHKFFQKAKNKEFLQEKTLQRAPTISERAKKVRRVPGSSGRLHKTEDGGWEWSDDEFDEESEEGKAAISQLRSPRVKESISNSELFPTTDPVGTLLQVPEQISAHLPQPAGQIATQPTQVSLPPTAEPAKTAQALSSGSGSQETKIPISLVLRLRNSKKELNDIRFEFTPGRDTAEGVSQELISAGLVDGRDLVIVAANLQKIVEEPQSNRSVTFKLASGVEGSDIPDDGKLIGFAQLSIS
From the text: (§1) ; FIG. 38C). […]. Further targeted analyses, such as genetic knock-down or knock-out, may be warranted to parse the role of these additional kinases in our model of neurodegeneration.

[2] = target: T2, panel of 371 human kinases (Homo sapiens, UniProt P00519); conditions: ABL1; 0.1 μM; 10 μM ATP; read-out: % Enzyme Activity (relative to DMSO controls)
T2 construct: purchased Reaction Biology Corp
From the text: as §1

[3] = target: T3, panel of 371 human kinases (Homo sapiens, UniProt P06213); conditions: IR; 0.1 μM; 10 μM ATP; read-out: % Enzyme Activity (relative to DMSO controls)
T3 construct: purchased Reaction Biology Corp
T3 sequence (P06213 28-1382): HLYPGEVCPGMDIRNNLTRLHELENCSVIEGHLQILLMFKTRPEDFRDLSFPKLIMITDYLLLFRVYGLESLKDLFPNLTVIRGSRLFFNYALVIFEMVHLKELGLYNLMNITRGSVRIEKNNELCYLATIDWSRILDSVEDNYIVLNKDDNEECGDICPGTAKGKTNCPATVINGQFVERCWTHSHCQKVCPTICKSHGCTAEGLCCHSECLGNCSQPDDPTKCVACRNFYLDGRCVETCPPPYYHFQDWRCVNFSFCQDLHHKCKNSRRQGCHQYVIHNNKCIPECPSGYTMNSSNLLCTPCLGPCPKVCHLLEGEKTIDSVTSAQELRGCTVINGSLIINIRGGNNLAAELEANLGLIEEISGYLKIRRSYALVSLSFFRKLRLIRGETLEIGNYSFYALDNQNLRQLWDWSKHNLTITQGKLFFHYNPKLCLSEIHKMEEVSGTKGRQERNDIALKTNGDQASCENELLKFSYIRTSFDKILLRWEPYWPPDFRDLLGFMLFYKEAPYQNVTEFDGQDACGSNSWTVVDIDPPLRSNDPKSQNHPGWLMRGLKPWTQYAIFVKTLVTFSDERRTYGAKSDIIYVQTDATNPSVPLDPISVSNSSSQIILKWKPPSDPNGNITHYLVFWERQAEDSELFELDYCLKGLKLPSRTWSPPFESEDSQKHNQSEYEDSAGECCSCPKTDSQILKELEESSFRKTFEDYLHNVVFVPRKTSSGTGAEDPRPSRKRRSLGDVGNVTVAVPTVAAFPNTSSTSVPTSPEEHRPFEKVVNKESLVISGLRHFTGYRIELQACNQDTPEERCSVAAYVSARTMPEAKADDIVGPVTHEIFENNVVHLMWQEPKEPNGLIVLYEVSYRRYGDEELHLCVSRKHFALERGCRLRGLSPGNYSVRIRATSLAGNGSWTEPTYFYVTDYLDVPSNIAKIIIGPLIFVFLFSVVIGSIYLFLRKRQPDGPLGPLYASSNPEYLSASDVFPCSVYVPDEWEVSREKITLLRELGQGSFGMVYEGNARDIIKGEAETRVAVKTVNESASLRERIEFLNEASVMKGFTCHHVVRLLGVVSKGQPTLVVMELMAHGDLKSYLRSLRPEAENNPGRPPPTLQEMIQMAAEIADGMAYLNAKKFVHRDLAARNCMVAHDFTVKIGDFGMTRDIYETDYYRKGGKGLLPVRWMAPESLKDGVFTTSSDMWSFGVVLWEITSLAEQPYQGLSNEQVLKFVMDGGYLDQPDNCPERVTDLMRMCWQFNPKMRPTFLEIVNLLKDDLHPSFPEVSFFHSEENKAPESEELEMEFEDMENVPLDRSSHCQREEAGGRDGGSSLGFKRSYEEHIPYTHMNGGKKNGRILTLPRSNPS
From the text: as §1

[4] = target: T4, panel of 371 human kinases (Homo sapiens, UniProt P36897); conditions: ALK5/TGFBR1; 0.1 μM; 10 μM ATP; read-out: % Enzyme Activity (relative to DMSO controls)
T4 construct: purchased Reaction Biology Corp
T4 sequence (P36897 34-503): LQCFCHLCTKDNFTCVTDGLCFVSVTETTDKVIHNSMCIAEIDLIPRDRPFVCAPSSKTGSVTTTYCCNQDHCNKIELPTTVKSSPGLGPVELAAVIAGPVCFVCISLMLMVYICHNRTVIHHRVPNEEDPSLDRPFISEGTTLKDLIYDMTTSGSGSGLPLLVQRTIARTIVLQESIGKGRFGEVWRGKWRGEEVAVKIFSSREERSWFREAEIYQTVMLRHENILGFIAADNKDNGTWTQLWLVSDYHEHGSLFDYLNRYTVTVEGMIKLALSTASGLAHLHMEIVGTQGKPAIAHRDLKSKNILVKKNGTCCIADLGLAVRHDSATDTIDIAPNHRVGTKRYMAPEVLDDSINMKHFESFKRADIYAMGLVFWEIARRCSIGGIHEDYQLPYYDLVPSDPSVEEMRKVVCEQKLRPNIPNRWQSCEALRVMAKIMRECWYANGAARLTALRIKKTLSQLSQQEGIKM
From the text: as §1

[5] = target: T5, panel of 371 human kinases (Homo sapiens, UniProt P49841); conditions: GSK3b; 0.1 μM; 10 μM ATP; read-out: % Enzyme Activity (relative to DMSO controls)
T5 construct: purchased Reaction Biology Corp
From the text: as §1

[6] = target: T6, panel of 371 human kinases (Homo sapiens, UniProt P57059); conditions: SIK1; 0.1 μM; 10 μM ATP; read-out: % Enzyme Activity (relative to DMSO controls)
T6 construct: purchased Reaction Biology Corp
From the text: as §1

[7] = target: T7, panel of 371 human kinases (Homo sapiens, UniProt Q00537); conditions: CDK17/cyclin Y (PCTK2); 0.1 μM; 10 μM ATP; read-out: % Enzyme Activity (relative to DMSO controls)
T7 construct: purchased Reaction Biology Corp
From the text: as §1

[8] = target: T8, panel of 371 human kinases (Homo sapiens, UniProt Q02156); conditions: PKCepsilon; 0.1 μM; 10 μM ATP; read-out: % Enzyme Activity (relative to DMSO controls)
T8 construct: purchased Reaction Biology Corp
T8 sequence (Q02156 whole entry): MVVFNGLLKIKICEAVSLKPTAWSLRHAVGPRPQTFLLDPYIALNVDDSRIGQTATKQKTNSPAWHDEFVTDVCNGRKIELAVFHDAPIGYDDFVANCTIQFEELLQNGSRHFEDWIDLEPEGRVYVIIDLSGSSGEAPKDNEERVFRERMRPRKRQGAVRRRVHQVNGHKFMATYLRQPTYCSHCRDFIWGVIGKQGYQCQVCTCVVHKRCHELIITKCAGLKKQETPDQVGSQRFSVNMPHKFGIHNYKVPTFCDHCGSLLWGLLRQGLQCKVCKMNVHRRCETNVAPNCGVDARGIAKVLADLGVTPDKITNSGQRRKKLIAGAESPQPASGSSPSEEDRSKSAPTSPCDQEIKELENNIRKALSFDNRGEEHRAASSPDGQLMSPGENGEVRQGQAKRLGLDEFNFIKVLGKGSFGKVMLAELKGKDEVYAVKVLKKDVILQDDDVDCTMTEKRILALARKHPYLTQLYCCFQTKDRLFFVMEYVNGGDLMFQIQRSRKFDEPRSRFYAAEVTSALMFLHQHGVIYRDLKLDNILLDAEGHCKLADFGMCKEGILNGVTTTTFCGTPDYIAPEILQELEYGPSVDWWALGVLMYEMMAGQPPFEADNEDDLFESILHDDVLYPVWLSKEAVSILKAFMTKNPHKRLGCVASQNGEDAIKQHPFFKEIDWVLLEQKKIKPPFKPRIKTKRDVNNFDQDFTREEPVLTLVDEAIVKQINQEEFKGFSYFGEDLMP
From the text: as §1

[9] = target: T9, panel of 371 human kinases (Homo sapiens, UniProt Q15303); conditions: ERBB4/HER4; 0.1 μM; 10 μM ATP; read-out: % Enzyme Activity (relative to DMSO controls)
T9 construct: purchased Reaction Biology Corp
T9 sequence (Q15303 26-1308): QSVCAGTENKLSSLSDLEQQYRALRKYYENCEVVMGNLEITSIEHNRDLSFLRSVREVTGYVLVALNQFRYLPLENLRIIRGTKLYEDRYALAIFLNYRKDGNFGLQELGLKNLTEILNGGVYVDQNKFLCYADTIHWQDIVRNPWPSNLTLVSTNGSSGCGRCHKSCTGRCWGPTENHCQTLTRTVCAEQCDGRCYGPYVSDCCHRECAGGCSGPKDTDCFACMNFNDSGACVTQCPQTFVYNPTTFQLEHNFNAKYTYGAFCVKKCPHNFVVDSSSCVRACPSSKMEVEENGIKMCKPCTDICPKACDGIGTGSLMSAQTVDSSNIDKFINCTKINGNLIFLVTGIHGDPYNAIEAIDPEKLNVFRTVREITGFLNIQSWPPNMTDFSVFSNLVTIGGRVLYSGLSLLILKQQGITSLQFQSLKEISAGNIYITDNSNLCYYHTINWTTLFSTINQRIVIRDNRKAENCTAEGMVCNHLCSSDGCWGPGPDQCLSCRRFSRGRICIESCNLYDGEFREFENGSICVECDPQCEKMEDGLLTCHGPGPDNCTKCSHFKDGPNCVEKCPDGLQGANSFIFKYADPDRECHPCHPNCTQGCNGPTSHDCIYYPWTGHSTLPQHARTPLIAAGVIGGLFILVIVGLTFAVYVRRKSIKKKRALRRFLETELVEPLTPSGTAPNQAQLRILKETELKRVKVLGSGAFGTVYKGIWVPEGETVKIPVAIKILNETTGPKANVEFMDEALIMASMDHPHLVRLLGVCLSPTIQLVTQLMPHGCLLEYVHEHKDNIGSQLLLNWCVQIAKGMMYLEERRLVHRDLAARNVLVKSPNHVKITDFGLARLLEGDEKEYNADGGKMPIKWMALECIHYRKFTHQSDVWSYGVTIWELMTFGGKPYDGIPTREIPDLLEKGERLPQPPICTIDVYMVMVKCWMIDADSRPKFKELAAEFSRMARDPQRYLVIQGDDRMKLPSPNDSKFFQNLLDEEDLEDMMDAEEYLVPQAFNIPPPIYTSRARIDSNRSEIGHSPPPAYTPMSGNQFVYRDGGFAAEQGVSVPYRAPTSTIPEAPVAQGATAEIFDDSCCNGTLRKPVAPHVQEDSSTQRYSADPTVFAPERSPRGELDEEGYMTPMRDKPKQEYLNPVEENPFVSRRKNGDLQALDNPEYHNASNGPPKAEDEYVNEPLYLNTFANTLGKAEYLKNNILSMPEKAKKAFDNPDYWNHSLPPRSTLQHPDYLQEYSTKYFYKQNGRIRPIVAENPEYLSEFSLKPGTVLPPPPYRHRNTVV
From the text: as §1

[10] = target: T10, panel of 371 human kinases (Homo sapiens, UniProt Q15759); conditions: P38b/MAPK11; 0.1 μM; 10 μM ATP; read-out: % Enzyme Activity (relative to DMSO controls)
T10 construct: purchased Reaction Biology Corp
From the text: as §1

[11] = target: T11, panel of 371 human kinases (Homo sapiens, UniProt Q56UN5); conditions: VSK4/MAP3K19; 0.1 μM; 10 μM ATP; read-out: % Enzyme Activity (relative to DMSO controls)
T11 construct: purchased Reaction Biology Corp
From the text: as §1

[12] = target: T12, panel of 371 human kinases (Homo sapiens, UniProt Q8IVH8); conditions: for remaining activity at 0.1 µM: GLK/MAP4K3, 10 μM ATP, read-out: % Enzyme Activity (relative to DMSO controls)
T12 construct: purchased Reaction Biology Corp
T12 sequence (Q8IVH8 1-894): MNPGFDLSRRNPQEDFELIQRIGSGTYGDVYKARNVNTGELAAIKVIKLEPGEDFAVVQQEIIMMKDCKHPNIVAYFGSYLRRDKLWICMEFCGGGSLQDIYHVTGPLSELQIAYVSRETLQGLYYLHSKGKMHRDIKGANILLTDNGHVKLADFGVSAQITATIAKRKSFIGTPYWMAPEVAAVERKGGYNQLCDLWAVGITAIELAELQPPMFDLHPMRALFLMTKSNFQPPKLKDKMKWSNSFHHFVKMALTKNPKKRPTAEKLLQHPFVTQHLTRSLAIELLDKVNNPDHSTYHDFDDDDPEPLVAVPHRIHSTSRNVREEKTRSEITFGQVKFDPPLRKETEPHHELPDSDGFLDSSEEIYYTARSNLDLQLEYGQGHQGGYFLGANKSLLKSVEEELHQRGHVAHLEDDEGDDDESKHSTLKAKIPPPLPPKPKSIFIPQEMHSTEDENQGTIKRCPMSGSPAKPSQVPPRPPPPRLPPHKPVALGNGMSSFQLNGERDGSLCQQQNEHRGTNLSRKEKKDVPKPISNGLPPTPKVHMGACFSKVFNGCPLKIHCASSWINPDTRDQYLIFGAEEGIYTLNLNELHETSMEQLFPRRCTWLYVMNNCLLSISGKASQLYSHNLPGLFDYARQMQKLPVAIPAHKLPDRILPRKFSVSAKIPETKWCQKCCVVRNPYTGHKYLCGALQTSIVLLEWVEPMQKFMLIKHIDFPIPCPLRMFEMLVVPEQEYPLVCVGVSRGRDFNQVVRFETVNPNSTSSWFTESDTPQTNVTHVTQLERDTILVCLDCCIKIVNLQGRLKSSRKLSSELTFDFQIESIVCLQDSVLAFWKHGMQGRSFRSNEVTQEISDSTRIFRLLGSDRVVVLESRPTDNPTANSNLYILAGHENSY
From the text: as §1

[13] = target: T13, panel of 371 human kinases (Homo sapiens, UniProt Q8TD08); conditions: ERK7/MAPK15; 0.1 μM; 10 μM ATP; read-out: % Enzyme Activity (relative to DMSO controls)
T13 construct: purchased Reaction Biology Corp
From the text: as §1

[14] = target: T14, panel of 371 human kinases (Homo sapiens, UniProt Q99759); conditions: MEKK3; 0.1 μM; 10 μM ATP; read-out: % Enzyme Activity (relative to DMSO controls)
T14 construct: purchased Reaction Biology Corp
From the text: as §1

[15] = target: T15, panel of 371 human kinases (Homo sapiens, UniProt Q9HAZ1); conditions: CLK4; 0.1 μM; 10 μM ATP; read-out: % Enzyme Activity (relative to DMSO controls)
T15 construct: purchased Reaction Biology Corp
From the text: as §1

[16] = target: T16, panel of 371 human kinases (Homo sapiens, UniProt Q9Y2H1); conditions: STK38/NDR2; 0.1 μM; 10 μM ATP; read-out: % Enzyme Activity (relative to DMSO controls)
T16 construct: purchased Reaction Biology Corp
T16 sequence (Q9Y2H1 whole entry): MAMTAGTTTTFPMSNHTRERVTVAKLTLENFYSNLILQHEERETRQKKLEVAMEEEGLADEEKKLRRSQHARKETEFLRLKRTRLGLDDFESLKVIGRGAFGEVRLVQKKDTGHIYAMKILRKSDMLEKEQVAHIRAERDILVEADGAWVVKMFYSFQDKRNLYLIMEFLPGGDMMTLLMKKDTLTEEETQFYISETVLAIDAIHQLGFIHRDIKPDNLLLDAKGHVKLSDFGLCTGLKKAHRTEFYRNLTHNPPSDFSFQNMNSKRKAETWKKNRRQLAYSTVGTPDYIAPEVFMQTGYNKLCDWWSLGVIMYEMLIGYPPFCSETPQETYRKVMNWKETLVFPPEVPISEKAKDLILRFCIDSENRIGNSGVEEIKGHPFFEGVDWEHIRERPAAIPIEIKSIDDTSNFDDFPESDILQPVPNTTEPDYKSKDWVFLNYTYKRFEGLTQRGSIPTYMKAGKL
From the text: as §1

[17] = target: T17, panel of 371 human kinases (Homo sapiens, UniProt Q9Y2K2); conditions: SIK3; 0.1 μM; 10 μM ATP; read-out: % Enzyme Activity (relative to DMSO controls)
T17 construct: purchased Reaction Biology Corp
From the text: as §1

Structure (SMILES)	remaining activity at 0.1 µM [1] [%]	remaining activity at 0.1 µM [2] [%]	remaining activity at 0.1 µM [3] [%]	remaining activity at 0.1 µM [4] [%]	remaining activity at 0.1 µM [5] [%]	remaining activity at 0.1 µM [6] [%]	remaining activity at 0.1 µM [7] [%]	remaining activity at 0.1 µM [8] [%]	remaining activity at 0.1 µM [9] [%]	remaining activity at 0.1 µM [10] [%]	remaining activity at 0.1 µM [11] [%]	fold change in GLK activity following 12k exposure relative to 1 ([12]; 0.025 μM) [fold]	remaining activity at 0.1 µM [12] [%]	remaining activity at 0.1 µM [13] [%]	remaining activity at 0.1 µM [14] [%]	remaining activity at 0.1 µM [15] [%]	remaining activity at 0.1 µM [16] [%]	remaining activity at 0.1 µM [17] [%]
OCCN1CCN(Cc2ccc(-c3cnc4[nH]cc(-c5cccc(Cl)c5)c4c3)cc2)CC1 [Compound 12k, 2-(4-(4-(3-(3-Chlorophenyl)-1H-pyrrolo[2,3-b]pyridin-5-yl)benzyl)piperazin-1-yl)ethan-1-ol]	97.1	76.7	112	98.5	89.6	106	74	98.6	97.2	94.2	107	6.84	7.18	90.4	94.6	71.9	77.8	92.3
CN1CCN(Cc2ccc(-c3cnc4[nH]cc(-c5ccc6[nH]ccc6c5)c4c3)cc2)CC1 [Compound 1, 3-(1H-Indol-5-yl)-5-(4-((4-methylpiperazin-1-yl)methyl)phenyl)-1H-pyrrolo[2,3-b]pyridine, reference compound]	102	68.2	100	97.6	99	102	88	110	104	87.4	101	–	49.2	109	91.6	94.5	87.7	75.5
